How the values were obtained:
human TPOR = target: T1, human TPOR (Homo sapiens, UniProt P40238); test: Proliferation of BAF3/TPOR cells (MTS method, OD490); format: cell-based, mouse; settings: BAF3 cells stably expressing human TPOR, cultured with compound 24 h
T1 construct: expressed in transfected cells; host or cells: mouse BAF3 cells
T1 sequence (P40238 26-635): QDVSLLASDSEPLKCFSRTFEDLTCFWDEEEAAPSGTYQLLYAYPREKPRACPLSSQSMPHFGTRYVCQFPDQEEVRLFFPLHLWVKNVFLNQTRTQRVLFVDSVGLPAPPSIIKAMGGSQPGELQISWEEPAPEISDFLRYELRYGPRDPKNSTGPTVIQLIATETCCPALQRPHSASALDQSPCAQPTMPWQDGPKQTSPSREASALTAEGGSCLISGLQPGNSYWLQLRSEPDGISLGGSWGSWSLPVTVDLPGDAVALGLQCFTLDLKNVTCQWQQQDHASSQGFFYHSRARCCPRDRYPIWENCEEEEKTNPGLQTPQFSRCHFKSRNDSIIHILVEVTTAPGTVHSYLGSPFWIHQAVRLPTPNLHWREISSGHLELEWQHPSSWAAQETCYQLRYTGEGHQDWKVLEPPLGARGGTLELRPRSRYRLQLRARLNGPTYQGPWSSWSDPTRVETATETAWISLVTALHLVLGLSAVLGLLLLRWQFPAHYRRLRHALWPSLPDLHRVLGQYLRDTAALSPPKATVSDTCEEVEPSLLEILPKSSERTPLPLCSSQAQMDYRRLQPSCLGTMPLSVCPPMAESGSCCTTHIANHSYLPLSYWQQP
Source text: The TPO mimetic compound was synthesized in vitro, and the compound acted on the TPO receptor (TPOR) on the cell to stimulate cell proliferation and differentiation. The OD490 value was detected by the MTS method, and the more the number of cells, the larger the OD value, thereby detecting the response of the compound to cell proliferation and differentiation. The agonist concentration at which the increased signal arrived at the highest level was Emax, and the concentration of the compound at which the increased signal arrived at 50% of the signal of Emax was EC50. The activity of the compound was determinable by EC50, and the smaller the EC50, the higher the activity of the compound.
Mouse […] BAF3 stably expressing human TPOR were cultured in 1640 medium containing 10% FBS. On the day of the assay, the cells were counted and seeded in a 96-well plate at 1×10^4 cells/50 μL. 50 μL of different concentrations of the tested compound were added to the wells to a final concentration of 10000 nM, 3000 nM, 300 nM, 30 nM, 3 nM, 0.3 nM, 0.03 nM, 0.003 nM, 0.0003 nM, and the final concentration of DMSO was 1%. After the cells were cultured with the compound for 24 h at 37° C. in a 5% CO2 incubator, 10 μL of detection reagent (Promega, Cell Titer 96® Aqueous One Solution) was added. After mixing, the resulting mixture was incubated for 3 h in the incubator. The OD 490 was detected using a multifunctional automatic microplate reader, and the EC50 was fitted using GraphPad Prism 5 software.

hERG potassium channel = hERG potassium channel (Homo sapiens, UniProt Q12809); test: hERG test, electrophysiological manual patch clamp; format: cell-based; settings: for hERG potassium channel inhibition (judgement in words): conclusion from Table 2; for IC50: manual patch clamp, IC50 >10 μM judged as no inhibitory effect on hERG
Sequence of hERG potassium channel (Q12809 whole entry): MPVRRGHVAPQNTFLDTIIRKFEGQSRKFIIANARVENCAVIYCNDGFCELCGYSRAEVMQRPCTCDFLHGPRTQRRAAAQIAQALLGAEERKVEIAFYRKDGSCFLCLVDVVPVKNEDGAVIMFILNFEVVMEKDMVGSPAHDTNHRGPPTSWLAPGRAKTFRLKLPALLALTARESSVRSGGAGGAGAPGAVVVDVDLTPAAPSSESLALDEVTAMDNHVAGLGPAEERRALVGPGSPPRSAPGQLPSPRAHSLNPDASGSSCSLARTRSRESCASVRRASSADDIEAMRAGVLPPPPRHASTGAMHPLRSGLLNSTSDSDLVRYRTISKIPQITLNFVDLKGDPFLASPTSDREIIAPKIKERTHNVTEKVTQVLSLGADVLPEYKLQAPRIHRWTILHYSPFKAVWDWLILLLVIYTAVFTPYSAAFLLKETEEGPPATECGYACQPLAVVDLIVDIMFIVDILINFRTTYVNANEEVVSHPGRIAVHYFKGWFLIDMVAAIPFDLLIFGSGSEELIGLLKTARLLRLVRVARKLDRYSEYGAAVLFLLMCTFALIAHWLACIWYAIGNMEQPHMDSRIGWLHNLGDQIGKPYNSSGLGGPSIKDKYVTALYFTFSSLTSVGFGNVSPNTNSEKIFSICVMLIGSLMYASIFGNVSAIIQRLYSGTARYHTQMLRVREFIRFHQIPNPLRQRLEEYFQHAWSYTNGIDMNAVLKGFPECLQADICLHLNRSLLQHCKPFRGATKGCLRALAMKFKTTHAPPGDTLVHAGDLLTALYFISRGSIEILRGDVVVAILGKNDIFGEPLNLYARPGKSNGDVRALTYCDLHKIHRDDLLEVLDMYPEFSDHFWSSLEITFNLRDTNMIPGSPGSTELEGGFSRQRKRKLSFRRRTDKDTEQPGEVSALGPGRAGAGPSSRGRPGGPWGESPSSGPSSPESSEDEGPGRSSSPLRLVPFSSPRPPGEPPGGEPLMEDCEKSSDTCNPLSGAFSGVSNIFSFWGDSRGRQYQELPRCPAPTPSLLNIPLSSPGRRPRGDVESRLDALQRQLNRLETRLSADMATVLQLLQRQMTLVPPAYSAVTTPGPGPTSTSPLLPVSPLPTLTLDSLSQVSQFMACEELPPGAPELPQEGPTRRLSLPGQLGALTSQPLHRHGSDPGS
Source text: In cardiomyocytes, the potassium channel encoded by hERG (human Ether-a-go-go Related Gene) mediated the delayed rectifier potassium current (lKr). The IKr inhibition was the most important mechanism for drug-induced QT prolongation and induction of arrhythmia.
The electrophysiological manual patch clamp was used to detect the effect of the tested compound on the hERG potassium channel.

Row | Compound | EC50 (human TPOR) | hERG potassium channel inhibition (judgement in words) (hERG potassium channel) | IC50 (hERG potassium channel)
1 | O=C(Nc1nc(-c2cc(Cl)cs2)c(N2CC3CCC2CN3C2CCCCC2)s1)c1cnc(N2CCC(C(=O)O)CC2)c(Cl)c1 (centres unmarked) [Example 29, 3′-chloro-5′-(4-(4-chlorothiophen-2-yl)-5-(5-cyclohexyl-2,5-diazabicyclo[2.2.2]octan-2-yl)-thiazol-2-carbamoyl)-3,4,5,6-tetrahydro-2H-[1,2′]bipyridine-4-carboxylic acid] | 0.89 nM | – | –
2 | C/C(=C\c1c(Cl)cc(C(=O)Nc2nc(-c3cc(Cl)cs3)c(N3C[C@H]4CCN(C5[C@H]6C[C@@H]7C[C@@H](C[C@H]5C7)C6)[C@H]4C3)s2)cc1Cl)C(=O)O (stereo partly drawn) [Example 51, (E)-3-(4-((5-((3aR,6aR)-1-((1R,3R,5R,7R)-adamantan-2-yl)hexahydropyrrolo[3,4-b]pyrrol-5(1H)-yl)-4-(4-chlorothiophen-2-yl)thiazol-2-yl)carbamoyl)-2,6-dichlorophenyl)-2-methylacrylic acid] | 0.05 nM | no hERG inhibition | > 30000 nM
3 | C/C(=C\c1c(Cl)cc(C(=O)Nc2nc(-c3cc(Cl)cs3)c(N3CCC4C(CCN4C4CCCCC4)C3)s2)cc1Cl)C(=O)O (centres unmarked) [Example 48] | 0.6 nM | – | –
4 | C/C(=C\c1c(Cl)cc(C(=O)Nc2nc(-c3cc(Cl)cs3)c(N3CC4CCN(C5C[C@H]6CC[C@@H]5C6)C4C3)s2)cc1Cl)C(=O)O (some centres unmarked) [Example 45, (E)-3-(4-((5-(1-(bicyclo[2.2.1]hept-2-yl)-hexahydropyrrolo[3,4-b]pyrrol-5(1H)-yl)-4-(4-chlorothiophen-2-yl)-thiazol-2-yl)-carbamoyl)-2,6-dichlorophenyl)-2-methylacrylic acid] | 0.59 nM | – | –
5 | C/C(=C\c1c(Cl)cc(C(=O)Nc2nc(-c3cc(Cl)cs3)c(N3CC4CCN(C5CCCCCC5)C4C3)s2)cc1Cl)C(=O)O (centres unmarked) [Example 44, (E)-3-(4-((5-(1-cycloheptyl-hexahydropyrrolo[3,4-b]pyrrol-5(1H)-yl)-4-(4-chlorothiophen-2-yl)-thiazol-2-yl)-carbamoyl)-2,6-dichlorophenyl)-2-methylacrylic acid] | 0.13 nM | – | –
6 | C/C(=C\c1c(Cl)cc(C(=O)Nc2nc(-c3cc(Cl)cs3)c(N3C[C@@H]4CCN(C5[C@H]6C[C@@H]7C[C@@H](C[C@H]5C7)C6)[C@@H]4C3)s2)cc1Cl)C(=O)O (stereo partly drawn) [Example 52, (E)-3-(4-((5-((3aS,6aS)-1-((1S,3S,5S,7S)-adamantan-2-yl)hexahydropyrrolo[3,4-b]pyrrol-5(1H)-yl)-4-(4-chlorothiophen-2-yl)thiazol-2-yl)carbamoyl)-2,6-dichlorophenyl)-2-methylacrylic acid] | 0.13 nM | – | 7900 nM
7 | C/C(=C\c1c(Cl)cc(C(=O)Nc2nc(-c3cccc(C(F)(F)F)c3)c(N3CC4CCN(C5CCCCC5)C4C3)s2)cc1Cl)C(=O)O (centres unmarked) [Example 35, (E)-3-(2,6-dichloro-4-(5-(1-cyclohexyl-hexahydropyrrolo[3,4-b]pyrrol-5-yl)-4-(3-trifluoromethylphenyl)-thiazol-2-carbamoyl)-phenyl)-2-methyl-acrylic acid] | 0.57 nM | – | –
8 | O=C(Nc1nc(-c2cc(Cl)cs2)c(N2CC3CCN(C4CCCCC4)C3C2)s1)c1cnc(N2CCC(C(=O)O)CC2)c(Cl)c1 (centres unmarked) [Example 5, 1-(3-chloro-5-((4-(4-chlorothiophen-2-yl)-5-(1-cyclohexyl-hexahydropyrrolo[3,4-b]pyrrol-5(1H)-yl)-thiazol-2-yl)-carbamoyl)-pyridin-2-yl)-piperidine-4-carboxylic acid] | 0.08 nM | – | –
9 | O=C(Nc1nc(-c2cc(Cl)cs2)c(N2CC3CCN(C4CCCCCC4)C3C2)s1)c1cnc(N2CCC(C(=O)O)CC2)c(Cl)c1 (centres unmarked) [Example 8, 1-(3-chloro-5-((4-(4-chlorothiophen-2-yl)-5-(1-cycloheptyl-hexahydropyrrolo[3,4-b]pyrrol-5(1H)-yl)-thiazol-2-yl)-carbamoyl)-pyridin-2-yl)-piperidine-4-carboxylic acid] | 1.11 nM | – | –
10 | CCCCCCO[C@@H](C)c1cccc(-c2csc(NC(=O)c3cc(Cl)c(/C=C(\C)C(=O)O)c(Cl)c3)n2)c1OC [Lusutrombopag, reference compound] | 1.93 nM | significant cardiac hERG potassium channel inhibition | 2370 nM
11 | C/C(=C\c1c(Cl)cc(C(=O)Nc2nc(-c3cc(Cl)cs3)c(N3CC4CCN(C5[C@H]6C[C@@H]7C[C@@H](C[C@H]5C7)C6)C4C3)s2)cc1Cl)C(=O)O (stereo partly drawn) [Example 46, (E)-3-(4-((5-(1-((1R,3R,5R,7R)-adamantan-2-yl)hexahydropyrrolo[3,4-b]pyrrol-5(1H)-yl)-4-(4-chlorothiophen-2-yl)thiazol-2-yl)carbamoyl)-2,6-dichlorophenyl)-2-methylacrylic acid] | 0.08 nM | – | –
12 | O=C(Nc1nc(-c2cc(Cl)cs2)c(N2CC3CCN(C4CCC4)C3C2)s1)c1cnc(N2CCC(C(=O)O)CC2)c(Cl)c1 (centres unmarked) [Example 2, 1-(3-chloro-5-((4-(4-chlorothiophen-2-yl)-5-(1-cyclobutyl-hexahydropyrrolo[3,4-b]-pyrrol-5(1H)-yl)-thiazol-2-yl)-carbamoyl)-pyridin-2-yl)-piperidine-4-carboxylic acid] | 0.21 nM | – | –
13 | C/C(=C\c1c(Cl)cc(C(=O)Nc2nc(-c3cc(Cl)cs3)c(N3CC4CCN(C5CC(F)(F)C5)C4C3)s2)cc1Cl)C(=O)O (centres unmarked) [Example 38, (E)-3-(4-((5-(1-(3,3-difluorocyclobutyl)-hexahydropyrrolo[3,4-b]pyrrol-5(1H)-yl)-4-(4-chlorothiophen-2-yl)-thiazol-2-yl)-carbamoyl)-2,6-dichlorophenyl)-2-methylacrylic acid] | 0.43 nM | – | –
14 | C/C(=C\c1c(Cl)cc(C(=O)Nc2nc(-c3cc(Cl)cs3)c(N3CC4CCN(C5CCCC5)C4C3)s2)cc1Cl)C(=O)O (centres unmarked) [Example 40, (E)-3-(2,6-dichloro-4-((4-(4-chlorothiophen-2-yl)-5-(1-cyclopentyl-hexahydropyrrolo[3,4-b]pyrrol-5(1H)-yl)-thiazol-2-yl)-carbamoyl)-phenyl)-2-methylacrylic acid] | 0.07 nM | – | –
15 | C/C(=C\c1c(Cl)cc(C(=O)Nc2nc(-c3cc(Cl)cs3)c(N3CC4CCN(C5CCC5)C4C3)s2)cc1Cl)C(=O)O (centres unmarked) [Example 37, (E)-3-(2,6-dichloro-4-((4-(4-chlorothiophen-2-yl)-5-(1-cyclobutyl-hexahydropyrrolo[3,4-b]pyrrol-5(1H)-yl)-thiazol-2-yl)-carbamoyl)-phenyl)-2-methylacrylic acid] | 0.34 nM | – | –
16 | O=C(Nc1nc(-c2cc(Cl)cs2)c(N2CC3CCN(C4C[C@H]5CC[C@@H]4C5)C3C2)s1)c1cnc(N2CCC(C(=O)O)CC2)c(Cl)c1 (stereo in doubt) [Example 9, 1-[3-chloro-5-((4-(4-chlorothiophen-2-yl)-5-(1-(bicyclo[2.2.1]hept-2-yl)-hexahydropyrrolo[3,4-b]pyrrol-5(1H)-yl)thiazol-2-yl)carbamoyl)pyridin-2-yl]piperidine-4-carboxylic acid] | 0.21 nM | – | –
17 | O=C(Nc1nc(-c2cc(Cl)cs2)c(N2CC3CCN(C4[C@H]5C[C@@H]6C[C@@H](C[C@H]4C6)C5)C3C2)s1)c1cnc(N2CCC(C(=O)O)CC2)c(Cl)c1 (stereo partly drawn) [Example 10, 1-(3-chloro-5-((4-(4-chlorothiophen-2-yl)-5-(1-(1R,3R,5R,7R)-adamantanyl-hexahydropyrrolo[3,4-b]pyrrol-5(1H)-yl)-thiazol-2-yl)carbamoyl)-pyridin-2-yl)-piperidine-4-carboxylic acid] | 0.1 nM | – | –
18 | C/C(=C\c1c(Cl)cc(C(=O)Nc2nc(-c3cc(Cl)cs3)c(N3CC4CCN(C5CCCCC5)C4C3)s2)cc1Cl)C(=O)O (centres unmarked) [Example 36, (E)-3-(2,6-dichloro-4-((4-(4-chlorothiophen-2-yl)-5-(1-cyclohexyl-hexahydropyrrolo[3,4-b]pyrrol-5(1H)-yl)-thiazol-2-yl)-carbamoyl)-phenyl)-2-methylacrylic acid] | 0.1 nM | – | –

— patent publication US20190315771A1, “NOVEL 2-ACYLAMINOTHIAZOLE DERIVATIVE AND PREPARATION METHOD THEREFOR AND USE THEREOF” (SICHUAN KELUN-BIOTECH BIOPHARMACEUTICAL CO., LTD., priority 2016, published 2019)
